This note sets out measurements from patent publication US20230145835A1, “Modulators of Alpha-4-beta-7 Integrin and MAdCAM” (48HD Biopharma Inc., priority 2021, published 2023).

The target in this test is T1, rh-integrin α4β7/LPAM-1 (Homo sapiens, UniProt P13612+P26010).
T1 sequence (P13612 34-977 limits assumed): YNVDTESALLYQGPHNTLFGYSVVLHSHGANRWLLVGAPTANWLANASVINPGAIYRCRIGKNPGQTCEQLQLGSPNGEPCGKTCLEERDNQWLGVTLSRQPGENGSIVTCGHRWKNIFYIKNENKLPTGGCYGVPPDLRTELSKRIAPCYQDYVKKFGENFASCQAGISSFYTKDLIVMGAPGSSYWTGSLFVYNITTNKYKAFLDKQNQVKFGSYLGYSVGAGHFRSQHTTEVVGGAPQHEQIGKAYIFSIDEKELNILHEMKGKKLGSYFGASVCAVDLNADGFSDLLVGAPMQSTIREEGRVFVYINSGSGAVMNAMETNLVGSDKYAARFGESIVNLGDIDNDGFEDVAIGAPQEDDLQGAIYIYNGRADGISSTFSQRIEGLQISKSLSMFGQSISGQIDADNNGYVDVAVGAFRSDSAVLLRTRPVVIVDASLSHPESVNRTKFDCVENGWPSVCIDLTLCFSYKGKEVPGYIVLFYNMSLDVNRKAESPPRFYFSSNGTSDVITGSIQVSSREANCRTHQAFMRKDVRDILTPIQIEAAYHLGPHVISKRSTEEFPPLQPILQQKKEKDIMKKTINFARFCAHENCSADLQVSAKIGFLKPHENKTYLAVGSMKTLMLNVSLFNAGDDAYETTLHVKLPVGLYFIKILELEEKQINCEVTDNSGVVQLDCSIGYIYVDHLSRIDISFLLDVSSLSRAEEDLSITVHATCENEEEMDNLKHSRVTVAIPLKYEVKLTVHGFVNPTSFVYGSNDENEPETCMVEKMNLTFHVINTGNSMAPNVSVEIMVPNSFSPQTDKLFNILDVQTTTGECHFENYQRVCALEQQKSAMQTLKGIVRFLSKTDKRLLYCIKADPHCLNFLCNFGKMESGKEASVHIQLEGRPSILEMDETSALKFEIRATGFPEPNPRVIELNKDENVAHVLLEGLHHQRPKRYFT
T1 sequence (P26010 20-723 limits assumed): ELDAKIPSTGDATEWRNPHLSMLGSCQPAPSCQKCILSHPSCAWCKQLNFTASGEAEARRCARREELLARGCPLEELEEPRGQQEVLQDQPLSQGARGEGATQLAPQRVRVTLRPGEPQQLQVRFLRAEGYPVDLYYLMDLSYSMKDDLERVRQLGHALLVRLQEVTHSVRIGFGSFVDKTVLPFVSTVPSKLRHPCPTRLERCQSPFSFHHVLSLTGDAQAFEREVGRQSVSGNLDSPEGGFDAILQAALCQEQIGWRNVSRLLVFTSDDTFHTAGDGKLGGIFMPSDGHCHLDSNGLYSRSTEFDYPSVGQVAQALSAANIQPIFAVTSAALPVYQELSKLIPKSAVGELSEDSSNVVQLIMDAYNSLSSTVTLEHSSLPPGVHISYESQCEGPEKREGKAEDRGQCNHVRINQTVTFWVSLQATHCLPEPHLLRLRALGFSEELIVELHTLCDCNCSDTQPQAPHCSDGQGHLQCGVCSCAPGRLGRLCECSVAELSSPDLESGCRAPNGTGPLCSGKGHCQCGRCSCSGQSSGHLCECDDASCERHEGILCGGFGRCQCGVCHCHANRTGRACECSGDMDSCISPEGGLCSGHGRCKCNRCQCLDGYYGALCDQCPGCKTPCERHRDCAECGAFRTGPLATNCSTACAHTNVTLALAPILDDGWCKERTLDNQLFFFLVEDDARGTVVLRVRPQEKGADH
The experiment in a line: α4β7-MadCAM Competition ELISA (Example 4). It counts as binding. Particulars: read-out: IC50. On the procedure:
After washing with wash buffer, 200 μL assay buffer was added to each well and incubated for one hour at 28° C. After another wash with wash buffer, 100 μL of a MAdCAM and peptide mixture in assay buffer was added to each well and incubated for one hour at 28° C., followed by washing with wash buffer.

Where [1] appears, read: Table 3 Representative compounds, inhibition of MAdCAM binding to coated α4β7.
Setting [2] is: competition ELISA, 4 μg/mL α4β7 coated, MAdCAM and peptide mixture, 28° C.

Structures are written as SMILES. Like-named read-outs stand apart in the source and are kept apart here. Numbered stars: 1 amine (or outer) side, 2 acyl side, 3 side chain; on linkers, the order of the positions; unused ones are H or OH. Bridge positions count the residues as written; N and C are the ends. Peptide text beside a SMILES is read from it. X1 = O=C(C=NOCCCCCCOc1cc(C[*:2])cc(C[*:3])c1)[*:1]

With `CC(C)C[C@@H]1NC(=O)[C@H](CO)NC(=O)[C@H](CCCNC(=N)N)NC(=O)[C@@H]2CSCC(=O)N[C@@H](CCCNC(=N)N)C(=O)N[C@@H](CSSC[C@@H](C(=O)N[C@@H](Cc3c[nH]c4ccccc34)C(=O)N[C@@H](CCC(N)=O)C(N)=O)NC(=O)[C@H](C(C)C)NC(=O)[C@@H](CC(=O)O)NC1=O)C(=O)N[C@@H](CO)C(=O)N[C@@H](CC(=O)O)C(=O)N[C@@H]([C@@H](C)O)C(=O)N[C@@H](CC(C)C)C(=O)N2` (racemic) [compound 87], under setting [1], the 50% inhibitory concentration (IC50) – broadly, the concentration at which inhibition is half-maximal – is 71.3 µM.

In the case of `CCCC[C@@H]1NC(=O)[C@@H]2CCCN2C(=O)[C@@H]2CSCc3cc(cc(c3)OCCCCCCC(=O)NCC(=O)N[C@@H](CCCCN)C(=O)N2)CSC[C@@H](C(N)=O)NC(=O)[C@H](CCCCN)NC(=O)[C@H](C(C)C)NC(=O)[C@H](Cc2c[nH]c3ccccc23)NC(=O)[C@H]([C@@H](C)CC)NC(=O)[C@H](CC(=O)O)NC1=O` (stereo in doubt) [compound 21, TSLC7- GKCP{Nle} DIWVKC], the IC50 under setting [1] was 0.45 µM.

Consider `CC[C@H](C)[C@@H]1NC(=O)[C@H](CC(=O)O)NC(=O)[C@H](CCSC)NC(=O)[C@@H]2CCCN2C(=O)C(NC(=O)[C@H](CCCNC(=N)N)NC(=O)[C@H](CO)NC(C)=O)CSSC[C@@H](C(=O)N[C@@H](CCCCNC(=O)COCC(=O)NCCCC[C@H](NC(=O)[C@@H]2CSSC[C@H](NC(=O)[C@H](CCCNC(=N)N)NC(=O)[C@H](CO)NC(C)=O)C(=O)N3CCC[C@H]3C(=O)N[C@@H](CCSC)C(=O)N[C@@H](CC(=O)O)C(=O)N[C@@H]([C@@H](C)CC)C(=O)N[C@@H](C)C(=O)NCC(=O)N[C@@H](CCC(=O)O)C(=O)N2)C(N)=O)C(N)=O)NC(=O)[C@H](CCC(=O)O)NC(=O)CNC(=O)[C@H](C)NC1=O` (stereo in doubt) [compound 32], for which the concentration for half-maximal inhibition (IC50) under setting [1] stood at 0.729 µM.

For `CCCC[C@@H]1NC(=O)[C@@H]2CCCN2C(=O)[C@@H]2CSCc3cc(cc(c3)OCCCCCCC(=O)NCC(=O)N[C@@H](C)C(=O)N2)CSC[C@@H](C(N)=O)NC(=O)[C@H](CCC(=O)O)NC(=O)[C@H](CCC(N)=O)NC(=O)[C@H](Cc2c[nH]c3ccccc23)NC(=O)[C@H](C(C)C)NC(=O)[C@H](CC(=O)O)NC1=O` (stereo in doubt) [compound 33, TSLC7- GACP{Nle} DVWQEC], the IC50 under setting [1] worked out at 0.74 µM.

For `CC(C)C[C@@H]1NC(=O)[C@@H]2CCCN2C(=O)[C@@H]2CSCc3cc(cc(c3)OCCCCCCO/N=C/C(=O)N[C@@H](C)C(=O)N2)CSC[C@@H](C(N)=O)NC(=O)[C@H](CCC(=O)O)NC(=O)[C@H](Cc2ccc(O)cc2)NC(=O)[C@@H]2CCCN2C(=O)C([C@@H](C)O)NC(=O)[C@H](CC(=O)O)NC1=O` (stereo in doubt) [compound 43, TSL6- SACPLDTPYEC], under setting [1], the IC50 came out at 1.45 µM.

`CC(C)C[C@@H]1NC(=O)[C@H](C)NC(=O)[C@@H]2CSCc3cc(cc(c3)OCCCCCCO/N=C/C(=O)N[C@@H](CCCCN)C(=O)N2)CSC[C@@H](C(N)=O)NC(=O)[C@H](CCC(=O)O)NC(=O)[C@H](Cc2ccc(O)cc2)NC(=O)[C@@H]2CCCN2C(=O)[C@H]([C@@H](C)O)NC(=O)[C@H](CC(=O)O)NC1=O` (stereo in doubt) [compound 53, TSL6- SKCALDTPYEC]: the IC50 under setting [1] stood at 2.7 µM.

For the compound `CC(C)C[C@@H]1NC(=O)[C@H](Cc2ccccc2)NC(=O)[C@@H]2CSCc3cc(cc(c3)OCCCCCCON=CC(=O)N[C@@H]([C@@H](C)O)C(=O)N2)CSC[C@@H](C(=O)O)NC(=O)[C@H](CC(N)=O)NC(=O)[C@H](CCCCN)NC(=O)[C@H](C(C)C)NC(=O)[C@H](CC(=O)O)NC1=O` [SEQ ID NO: 10] (TCFLDVKNC-OH; linker N-2-9 via X1), the IC50 under setting [2] was found to be 311 µM.

Turning to `N=C(N)NCCC[C@@H]1NC(=O)CNC(=O)[C@H](Cc2ccc(O)cc2)NC(=O)[C@H](Cc2c[nH]c3ccccc23)NC(=O)[C@H](Cc2c[nH]cn2)NC(=O)[C@@H]2CSCc3cc(cc(c3)OCCCCCCON=CC(=O)N[C@@H](CCC(N)=O)C(=O)N2)CSC[C@@H](C(=O)O)NC(=O)[C@H](CO)NC1=O` [SEQ ID NO: 19] (QCHWYGRSC-OH; linker N-2-9 via X1), the IC50 under setting [2] was more than 500 µM.

As for `C[C@@H]1NC(=O)C=NOCCCCCCOc2cc3cc(c2)CSC[C@H](NC1=O)C(=O)N[C@@H](Cc1ccc(O)cc1)C(=O)N1CCC[C@H]1C(=O)N[C@@H](CC(=O)O)C(=O)N[C@@H]([C@@H](C)O)C(=O)N[C@@H](Cc1ccc(O)cc1)C(=O)N[C@@H](Cc1c[nH]cn1)C(=O)N[C@H](C(=O)O)CSC3` [SEQ ID NO: 39] (ACYPDTYHC-OH; linker N-2-9 via X1), under setting [2], the IC50 turned out to be 111 µM.

Turning to `CC[C@H](C)[C@@H]1NC(=O)[C@H](C)NC(=O)[C@H](CCSC)NC(=O)[C@@H]2CCCN2C(=O)[C@@H]2CSCc3cc(cc(c3)OCCCCCCON=CC(=O)N[C@@H](CCC(N)=O)C(=O)N2)CSC[C@@H](C(=O)O)NC(=O)[C@H]([C@@H](C)O)NC(=O)[C@@H]2CCCN2C1=O` [SEQ ID NO: 49] (QCPMAIPTC-OH; linker N-2-9 via X1), the IC50 under setting [2] was more than 500 µM.

Turning to `CC(C)C[C@@H]1NC(=O)[C@@H]2CCCN2C(=O)[C@@H]2CSCc3cc(cc(c3)OCCCCCCON=CC(=O)N[C@@H](CCCCN)C(=O)N2)CSC[C@@H](C(=O)O)NC(=O)[C@H](CO)NC(=O)[C@@H]2CCCN2C(=O)[C@H](C(C)C)NC(=O)[C@H](C)NC1=O` [SEQ ID NO: 56] (KCPLAVPSC-OH; linker N-2-9 via X1), the IC50 under setting [2] came out at 55.9 µM.

In the case of `CC(C)C[C@@H]1NC(=O)[C@@H]2CCCN2C(=O)[C@@H]2CSCc3cc(cc(c3)OCCCCCCON=CC(=O)N[C@@H](CCCCN)C(=O)N2)CSC[C@@H](C(=O)O)NC(=O)[C@H](CO)NC(=O)[C@@H]2CCCN2C(=O)[C@H](C)NC(=O)[C@H](CC(=O)O)NC1=O` [SEQ ID NO: 57] (KCPLDAPSC-OH; linker N-2-9 via X1), the concentration for half-maximal inhibition (IC50) under setting [2] was 1.74 µM.

Turning to `C[C@@H]1NC(=O)[C@@H]2CCCN2C(=O)[C@@H]2CSCc3cc(cc(c3)OCCCCCCON=CC(=O)N[C@@H](CCCCN)C(=O)N2)CSC[C@@H](C(=O)O)NC(=O)[C@H](CCC(=O)O)NC(=O)[C@H](Cc2ccc(O)cc2)NC(=O)[C@@H]2CCCN2C(=O)[C@H]([C@@H](C)O)NC(=O)[C@H](CC(=O)O)NC1=O` [SEQ ID NO: 71] (KCPADTPYEC-OH; linker N-2-10 via X1), the 50% inhibitory concentration (IC50) under setting [2] was more than 500 µM.

On to `CC(C)C[C@@H]1NC(=O)[C@@H]2CCCN2C(=O)[C@@H]2CSCc3cc(cc(c3)OCCCCCCON=CC(=O)N[C@@H](CCCCN)C(=O)N2)CSC[C@@H](C(=O)O)NC(=O)[C@H](CCC(=O)O)NC(=O)[C@H](Cc2ccc(O)cc2)NC(=O)[C@@H]2CCCN2C(=O)[C@H]([C@@H](C)O)NC(=O)[C@H](C)NC1=O` [SEQ ID NO: 72] (KCPLATPYEC-OH; linker N-2-10 via X1), for which, under setting [2], the IC50 was more than 500 µM.

On to `CC[C@H](C)[C@@H]1NC(=O)[C@H](CC(=O)O)NC(=O)[C@H](CC(C)C)NC(=O)[C@H](CCCCN)NC(=O)[C@@H]2CSCc3cc(cc(c3)OCCCCCCON=CC(=O)N[C@@H](Cc3c[nH]cn3)C(=O)N2)CSC[C@@H](C(=O)O)NC(=O)[C@H](C(C)C)NC(=O)[C@H](Cc2c[nH]c3ccccc23)NC1=O` [SEQ ID NO: 73] (HCKLDIWVC-OH; linker N-2-9 via X1), for which the IC50 under setting [2] was more than 500 µM.
